Assays:
SYK = target: T1, SYK (Homo sapiens, UniProt P43405); experiment: SYK inhibition IC50 (Reaction Biology Corp.); type: biochemical; details: 10-point curve; read-out: SYK IC50
T1 construct: purchased Reaction Biology Corp., Malvern, Pa; (contract assay service)
From the text: (§1) The inhibitory activity of a compound of the invention against PI3K and/or BRD4 and/or SYK and/or CDK4/6 can be readily determined using methods known to the skilled artisan, or by commercial vendors offering such services. […] In vivo, PI3K inhibition can be determined from target tissue biopsies by standard tissue processing to disrupt cells and then performing Western Blot analysis to determine the presence or absence of pAKT (substrate of PI3K) relative to a control sample. The activity of a compound of the invention as an inhibitor of a bromodomain-containing protein, such as a BET protein, such as BRD2, BRD3, BRD4, and/or BRDT, or an isoform or mutant thereof, may be determined in vitro, in vivo, or in a cell line. In vitro assays include assays that determine inhibition of bromodomain-containing proteins. Alternatively, inhibitor binding may be determined by running a competition experiment where a provided compound is incubated with a bromodomain-containing protein, such as a BET protein bound to known ligands, labeled or unlabeled. For example, bromodomain inhibition can be determined in vitro using Alpha Screen Technology (http://www.reactionbiologv.com/webapps/site/NewsPDFs/Bromodomain%20Assay %20Platform %20for %20Drug %20Screening %20and %20Discovery.pdf). In vivo bromodomain inhibition can be determined indirectly by evaluating the amount of protein present of proteins whose genes' transcription is influenced or controlled by the bromodomain protein, for example, the MYCN protein transcription is controlled by BRD4 (J. E. Delmore et al., Cell 2011, 146, 904-917; A. Puissant, Cancer Discov. 2013, 3, 308-323). Bromodomain inhibition may also be predicted by in silico modeling as described below in the Examples. Additionally, the company Promega offers a SYK luminescent assay to determine a compound's ability to inhibit the SYK protein (https://www.promega.com/-/media/files/resources/protocols/kinase-enzyme-appnotes/syk-kinase-assay-protocol.pdf?la=en).
Compounds of the invention were characterized for their ability to inhibit target proteins using third party vendors offering such services. PI3K alpha, gamma, and delta inhibition activity was determined by Thermo Fisher Scientific-Biosciences Life Sciences Solutions, Madison, Wis. The bromodomain protein inhibition (binding domain 1 and 2 of BRD4) as well as SYK inhibition was determined at Reaction Biology Corp., Malvern, Pa. Additional information on each of the assays performed and services provided is available at each company's website on the internet (https://www.thermofisher.com/us/en/home/life-science.html and http://www.reactionbiology.com/webapps/site, respectively). The IC50 data (shown below in Table 5) was calculated from a 10-point curve and is expressed in nanomolar concentration (nM) rounded off to the nearest whole number. Where multiple values were obtained the range from lowest to highest values is presented. NI=no inhibition detected up to 50 uM or IC50 not reached at 50 uM.

PI3K α = target: T2, PI3K α (Homo sapiens, UniProt P42336); experiment: PI3K alpha inhibition IC50 (Thermo Fisher); type: biochemical; details: 10-point curve
T2 construct: purchased Thermo Fisher Scientific-Biosciences Life Sciences Solutions, Madison, Wis; (contract assay service)
From the text: as §1
(§2) Compounds of the invention were characterized for their ability to inhibit target proteins using third party vendors offering such services. PI3K alpha, gamma, and delta inhibition activity was determined by Thermo Fisher Scientific-Biosciences Life Sciences Solutions, Madison, Wis. The bromodomain protein inhibition (binding domain 1 and 2 of BRD4) as well as SYK inhibition was determined at Reaction Biology Corp., Malvern, Pa. […] The IC50 data (shown below in Table 5) was calculated from a 10-point curve and is expressed in nanomolar concentration (nM) rounded off to the nearest whole number. […]

BRD4-2 = target: T3, BRD4-2 (Homo sapiens, UniProt O60885); experiment: Bromodomain protein inhibition IC50, binding domain 2 of BRD4 (Reaction Biology Corp.); details: 10-point curve
T3 construct: purchased Reaction Biology Corp., Malvern, Pa; (contract assay service)
From the text: as §1, §2

[1] = test system: Bone marrow derived macrophages (BMDMs), M2 gene expression; experiment: M2 marker mRNA in IL4 stimulated bone marrow derived macrophages (RT PCR); type: cell-based, murine; details: for Arg mRNA expression relative to control / Fizz1 mRNA expression relative to control / Mmr mRNA expression relative to control / Ym1 mRNA expression relative to control / Mgl mRNA expression relative to control: IL4 stimulated BMDMs, 24 hours, normalized to GAPDH, control = 1
Procedure: (§3) Bone marrow derived macrophages (MOs) (BMDMs) were exposed to IL4 or LPS for 24 hours to stimulate the M2 or M1 macrophage transition in presence of Compound 1 and the known SYK inhibitor Bay-61-3606 at 1 μM conc. M2 markers Mmr, Ym1, Fizz1 and Mgl mRNA and M1 markers I11, 116 and Tnfa mRNA was quantitated by RT PCR. Values are mean±SEM (n=3-4). Expression of gene of interest is normalized to GAPDH. […] The data provide direct evidence that Compound 1 can block the immunosuppressive macrophage M2 gene expression and activate the M1 gene expression and therefore activate antitumor innate immune cell differentiation in vitro.
(§4) Relative mRNA expression of IL4 or LPS polarized genes in murine bone marrow derived macrophages (BMDMs) treated with various concentrations of inhibitors in vitro. Conclusion: Compound 3 suppressed in vitro macrophage specific immunosuppressive M2 gene expression markers and augmented macrophage stimulatory immune response M1 genes respectively.

BRD4-1 = target: T4, BRD4-1 (Homo sapiens, UniProt O60885); experiment: Bromodomain protein inhibition IC50, binding domain 1 of BRD4 (Reaction Biology Corp.); details: 10-point curve
T4 construct: purchased Reaction Biology Corp., Malvern, Pa; (contract assay service)
From the text: as §1, §2

[2] = test system: Bone marrow derived macrophages (BMDMs), M2 gene expression; experiment: M2 marker mRNA in IL4 stimulated bone marrow derived macrophages (RT PCR); type: cell-based, murine; details: 24 hours, normalized to GAPDH, control = 1
[3] = test system: Bone marrow derived macrophages (BMDMs), M1 gene expression; experiment: M1 marker mRNA in LPS stimulated bone marrow derived macrophages (RT PCR); type: cell-based, murine; details: for Il1 mRNA expression relative to control / Il6 mRNA expression relative to control / Tnfa mRNA expression relative to control: LPS stimulated BMDMs, 24 hours, normalized to GAPDH, control = 1
From the text: as §3, with “Bone marrow derived macrophages (MOs) (BMDMs) were exposed to IL4 or LPS for 24 hours to stimulate the M2 or M1 macrophage transition in presence of Compound 1 and the known SYK inhibitor Bay-61-3606 at 1 μM conc.” left out
as §4

PI3K γ = target: T5, PI3K γ (Homo sapiens, UniProt P48736); experiment: PI3K gamma inhibition IC50 (Thermo Fisher); type: biochemical; details: 10-point curve
T5 construct: purchased Thermo Fisher Scientific-Biosciences Life Sciences Solutions, Madison, Wis; (contract assay service)
From the text: as §1, §2

T2 sequence (P42336 whole entry): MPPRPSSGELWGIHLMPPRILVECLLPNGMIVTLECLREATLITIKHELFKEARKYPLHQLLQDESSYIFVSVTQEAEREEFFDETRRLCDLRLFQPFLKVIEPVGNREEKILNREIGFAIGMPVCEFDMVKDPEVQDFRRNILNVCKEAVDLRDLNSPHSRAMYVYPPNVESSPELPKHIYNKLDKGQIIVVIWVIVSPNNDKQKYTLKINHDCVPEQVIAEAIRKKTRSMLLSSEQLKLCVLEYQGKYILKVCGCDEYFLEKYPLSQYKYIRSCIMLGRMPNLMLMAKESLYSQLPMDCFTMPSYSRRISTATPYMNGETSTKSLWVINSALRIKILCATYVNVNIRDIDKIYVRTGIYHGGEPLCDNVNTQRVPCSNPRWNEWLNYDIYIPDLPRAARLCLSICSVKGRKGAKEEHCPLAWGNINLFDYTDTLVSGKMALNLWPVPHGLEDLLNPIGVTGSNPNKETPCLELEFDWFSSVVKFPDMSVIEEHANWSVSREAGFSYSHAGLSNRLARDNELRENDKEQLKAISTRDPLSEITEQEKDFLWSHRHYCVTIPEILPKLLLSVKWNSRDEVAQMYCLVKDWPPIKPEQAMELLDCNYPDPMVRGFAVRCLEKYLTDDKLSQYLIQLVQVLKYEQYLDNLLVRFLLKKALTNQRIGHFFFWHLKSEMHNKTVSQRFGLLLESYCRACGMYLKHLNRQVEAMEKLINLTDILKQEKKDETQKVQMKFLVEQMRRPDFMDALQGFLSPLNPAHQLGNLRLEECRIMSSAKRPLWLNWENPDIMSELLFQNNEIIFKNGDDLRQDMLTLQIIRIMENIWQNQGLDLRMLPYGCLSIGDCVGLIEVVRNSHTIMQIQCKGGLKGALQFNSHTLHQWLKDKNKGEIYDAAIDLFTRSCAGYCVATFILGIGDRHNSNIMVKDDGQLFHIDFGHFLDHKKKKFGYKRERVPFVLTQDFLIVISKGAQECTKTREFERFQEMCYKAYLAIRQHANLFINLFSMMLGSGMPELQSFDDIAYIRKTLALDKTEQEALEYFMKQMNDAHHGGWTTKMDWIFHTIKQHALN
T2 sequence (P27986 whole entry partner): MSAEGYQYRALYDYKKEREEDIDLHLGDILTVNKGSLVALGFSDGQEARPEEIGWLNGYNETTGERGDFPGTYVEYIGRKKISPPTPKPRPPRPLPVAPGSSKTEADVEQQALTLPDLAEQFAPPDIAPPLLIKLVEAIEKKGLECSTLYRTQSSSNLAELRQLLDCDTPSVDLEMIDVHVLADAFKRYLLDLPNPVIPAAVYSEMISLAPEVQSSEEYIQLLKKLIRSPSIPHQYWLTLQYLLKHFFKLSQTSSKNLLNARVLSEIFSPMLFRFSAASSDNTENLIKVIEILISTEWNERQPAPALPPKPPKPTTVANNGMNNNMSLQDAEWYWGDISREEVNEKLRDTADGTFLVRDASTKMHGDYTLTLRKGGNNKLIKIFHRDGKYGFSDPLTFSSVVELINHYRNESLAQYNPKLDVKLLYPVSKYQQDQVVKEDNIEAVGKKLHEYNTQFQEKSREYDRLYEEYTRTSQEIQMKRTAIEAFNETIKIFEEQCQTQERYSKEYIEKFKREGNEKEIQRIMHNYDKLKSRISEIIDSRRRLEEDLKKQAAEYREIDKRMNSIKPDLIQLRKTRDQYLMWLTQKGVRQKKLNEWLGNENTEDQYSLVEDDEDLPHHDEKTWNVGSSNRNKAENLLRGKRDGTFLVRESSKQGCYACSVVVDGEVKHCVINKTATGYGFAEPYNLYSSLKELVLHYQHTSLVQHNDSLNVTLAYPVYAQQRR
T5 sequence (P48736 whole entry): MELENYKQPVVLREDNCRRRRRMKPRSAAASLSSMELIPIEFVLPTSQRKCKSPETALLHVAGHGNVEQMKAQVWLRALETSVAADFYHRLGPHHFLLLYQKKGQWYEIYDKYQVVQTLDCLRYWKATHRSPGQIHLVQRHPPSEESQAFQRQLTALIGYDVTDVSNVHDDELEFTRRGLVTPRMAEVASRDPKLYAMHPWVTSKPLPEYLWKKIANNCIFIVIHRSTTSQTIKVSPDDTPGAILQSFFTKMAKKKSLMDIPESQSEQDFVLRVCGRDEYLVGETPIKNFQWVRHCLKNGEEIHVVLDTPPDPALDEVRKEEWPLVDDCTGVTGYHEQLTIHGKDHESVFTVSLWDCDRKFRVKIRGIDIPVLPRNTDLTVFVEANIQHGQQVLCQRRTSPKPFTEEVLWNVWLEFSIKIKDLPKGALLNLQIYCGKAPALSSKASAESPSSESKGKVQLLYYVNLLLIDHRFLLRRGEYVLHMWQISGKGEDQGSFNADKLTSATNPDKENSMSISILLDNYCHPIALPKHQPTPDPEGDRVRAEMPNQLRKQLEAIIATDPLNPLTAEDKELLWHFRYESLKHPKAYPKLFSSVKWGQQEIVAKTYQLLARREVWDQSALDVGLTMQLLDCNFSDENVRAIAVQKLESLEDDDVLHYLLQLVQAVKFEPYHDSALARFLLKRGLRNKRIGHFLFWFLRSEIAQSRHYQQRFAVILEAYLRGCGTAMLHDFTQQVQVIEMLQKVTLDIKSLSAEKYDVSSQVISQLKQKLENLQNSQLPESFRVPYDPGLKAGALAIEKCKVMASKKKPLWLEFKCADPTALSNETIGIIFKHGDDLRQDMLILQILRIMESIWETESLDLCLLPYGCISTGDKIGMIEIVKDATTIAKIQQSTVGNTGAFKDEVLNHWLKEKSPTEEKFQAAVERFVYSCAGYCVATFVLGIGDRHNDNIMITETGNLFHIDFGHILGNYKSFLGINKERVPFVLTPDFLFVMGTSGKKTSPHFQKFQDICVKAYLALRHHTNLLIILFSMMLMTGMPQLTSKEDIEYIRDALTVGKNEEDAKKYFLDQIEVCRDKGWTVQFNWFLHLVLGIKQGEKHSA

`Cc1nn(-c2ccnc(Nc3ccc(-c4csc5c(=O)cc(N6CCOCC6)oc45)cc3)n2)cc1CN1CC(O)C1` [Compound 1, 3-[p-(4-{4-[(3-Hydroxy-1-azetidinyl)methyl]-3-methyl-1H-pyrazol-1-yl}-2-pyrimidinylamino)phenyl]-5-morpholino-4-oxa-1-thia-7-indenone] was tested. Which IC50 (SYK) did it give?
The IC50 was < 0.1 µM.

And the IC50 (PI3K α)?
Its IC50 is 0.1 to 1 µM.

What about the IC50 (BRD4-2) of the same compound?
Its IC50 is > 50 µM.

And the “Arg mRNA expression relative to control” value ([1]; 200 nM)?
The value was 0.5.

And the “Fizz1 mRNA expression relative to control” value ([1]; 200 nM)?
Its value is 0.44.

And the “Mmr mRNA expression relative to control” value ([1]; 200 nM)?
Its value is 0.41.

And the “Ym1 mRNA expression relative to control” value ([1]; 200 nM)?
The value was 0.37.

What about the “Arg mRNA expression relative to control” value ([1]; 500 nM) of the same compound?
The value was 0.45.

What about the “Fizz1 mRNA expression relative to control” value ([1]; 500 nM) of the same compound?
Its value is 0.31.

And the “Mgl mRNA expression relative to control” value ([1]; 500 nM)?
Its value is 0.41.

And the “Mmr mRNA expression relative to control” value ([1]; 500 nM)?
The value was 0.18.

What about the “Ym1 mRNA expression relative to control” value ([1]; 500 nM) of the same compound?
The value was 0.21.

And the “Arg mRNA expression relative to control” value ([1]; 1 μM)?
The value was 0.39.

What about the “Fizz1 mRNA expression relative to control” value ([1]; 1 μM) of the same compound?
The value was 0.11.

What about the “Mgl mRNA expression relative to control” value ([1]; 1 μM) of the same compound?
Its value is 0.30.

And the “Mmr mRNA expression relative to control” value ([1]; 1 μM)?
The value was 0.19.

And the “Ym1 mRNA expression relative to control” value ([1]; 1 μM)?
The value was 0.10.

And the “Arg mRNA expression relative to control” value ([1]; 2 μM)?
The value was 0.14.

What about the “Mgl mRNA expression relative to control” value ([1]; 2 μM) of the same compound?
The value was 0.40.

And the “Mmr mRNA expression relative to control” value ([1]; 2 μM)?
The value was 0.14.

And the “Ym1 mRNA expression relative to control” value ([1]; 2 μM)?
The value was 0.11.

And the “Arg mRNA expression relative to control” value ([1]; 5 μM)?
The value was 0.22.

What about the “Fizz1 mRNA expression relative to control” value ([1]; 5 μM) of the same compound?
The value was 0.06.

What about the “Mgl mRNA expression relative to control” value ([1]; 5 μM) of the same compound?
The value was 0.24.

And the “Mmr mRNA expression relative to control” value ([1]; 5 μM)?
Its value is 0.18.

And the “Ym1 mRNA expression relative to control” value ([1]; 5 μM)?
The value was 0.04.

And the “immunosuppressive macrophage M2 gene expression” value ([1]; BMDMs, IL4 24 hours, 1 μM)?
Its value is “blocks immunosuppressive M2 gene expression”.

And the IC50 (BRD4-1)?
The IC50 was > 50 µM.

What about the “Mgl mRNA expression relative to control” value ([2]; 200 nM) of the same compound?
The value was 0.31.

What about the “Fizz1 mRNA expression relative to control” value ([2]; 2 μM) of the same compound?
The value was 0.22.

And the “Il1 mRNA expression relative to control” value ([3]; 200 nM)?
Its value is 1.1.

What about the “Il6 mRNA expression relative to control” value ([3]; 200 nM) of the same compound?
Its value is 1.7.

And the “Tnfa mRNA expression relative to control” value ([3]; 200 nM)?
Its value is 0.88.

And the “Il1 mRNA expression relative to control” value ([3]; 500 nM)?
The value was 1.1.

And the “Il6 mRNA expression relative to control” value ([3]; 500 nM)?
Its value is 1.29.

And the “Tnfa mRNA expression relative to control” value ([3]; 500 nM)?
Its value is 1.23.

And the “Il1 mRNA expression relative to control” value ([3]; 1 μM)?
The value was 1.2.

What about the “Il6 mRNA expression relative to control” value ([3]; 1 μM) of the same compound?
Its value is 3.15.

And the “Tnfa mRNA expression relative to control” value ([3]; 1 μM)?
The value was 1.70.

What about the “Il1 mRNA expression relative to control” value ([3]; 2 μM) of the same compound?
The value was 1.25.

And the “Il6 mRNA expression relative to control” value ([3]; 2 μM)?
Its value is 1.59.

And the “Tnfa mRNA expression relative to control” value ([3]; 2 μM)?
Its value is 1.99.

And the “Il1 mRNA expression relative to control” value ([3]; 5 μM)?
The value was 0.69.

What about the “Il6 mRNA expression relative to control” value ([3]; 5 μM) of the same compound?
The value was 0.97.

What about the “Tnfa mRNA expression relative to control” value ([3]; 5 μM) of the same compound?
The value was 0.90.

What about the “M1 inflammatory gene expression” value ([3]; BMDMs, LPS 24 hours, 1 μM) of the same compound?
Its value is “augments M1 inflammatory gene expression”.

And the IC50 (PI3K γ)?
Its IC50 is 5 to 50 µM.

Source: patent publication US11472814B2, “Thienopyranones and furanopyranones as checkpoint inhibitors and modulators of anti-tumor immunity” (SignalRx Pharmaceuticals, Inc., priority 2017, dated 2022)
